Source: PubChem BioAssay (NCI)
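Growth conditions: 96-well plates. Treatment: test compound, 48 hours, 5 concentrations. Analysis: linear interpolation between bracketing concentrations; unreached endpoints set to highest concentration. TGI denotes the concentration required for complete inhibition of growth.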

Assays:
Assay in all cases: inhibition of tumour cell growth, NCI panel, 48 h
HOP-92 NSCLC = system: HOP-92 NSCLC
HCC-2998 colon = system: HCC-2998 colon
NCI-H23 lung = system: NCI-H23 lung
SNB-75 CNS = system: SNB-75 CNS
LOX IMVI melanoma = system: LOX IMVI melanoma
UACC-257 melanoma = system: UACC-257 melanoma
MDA-N = system: MDA-N
OVCAR-4 ovarian = system: OVCAR-4 ovarian
SK-OV-3 ovarian = system: SK-OV-3 ovarian
SW-620 colon = system: SW-620 colon
SK-MEL-28 melanoma = system: SK-MEL-28 melanoma
MALME-3M melanoma = system: MALME-3M melanoma
DU-145 prostate = system: DU-145 prostate
NCI-H522 lung = system: NCI-H522 lung
OVCAR-3 ovarian = system: OVCAR-3 ovarian
BT-549 breast = system: BT-549 breast

## O=C1NC(=S)NC1C(Cc1ccccc1)c1ccco1 (stereo not drawn)
HOP-92 NSCLC
  TGI: > 100 µM
HCC-2998 colon
  TGI: > 100 µM
NCI-H23 lung
  TGI: > 100 µM
SNB-75 CNS
  TGI: > 100 µM
LOX IMVI melanoma
  TGI: > 100 µM
UACC-257 melanoma
  TGI: > 100 µM
MDA-N
  TGI: > 100 µM
OVCAR-4 ovarian
  TGI: > 100 µM
SK-OV-3 ovarian
  TGI: > 100 µM
SW-620 colon
  TGI: > 100 µM
SK-MEL-28 melanoma
  TGI: > 100 µM
MALME-3M melanoma
  TGI: > 100 µM
DU-145 prostate
  TGI: > 100 µM
NCI-H522 lung
  TGI: > 100 µM

## CCOC(=O)C1C(c2ccccc2)C2(C#N)C(=N)OC1(C)C2(C#N)C#N (stereo not drawn)
HOP-92 NSCLC
  TGI: 48.6 µM
HCC-2998 colon
  TGI: 27 µM
NCI-H23 lung
  TGI: 37 µM
SNB-75 CNS
  TGI: 34.7 µM
LOX IMVI melanoma
  TGI: 29.4 µM
UACC-257 melanoma
  TGI: 54.2 µM
MDA-N
  TGI: 27.9 µM
SK-OV-3 ovarian
  TGI: > 100 µM
SW-620 colon
  TGI: > 100 µM
MALME-3M melanoma
  TGI: 54.3 µM
DU-145 prostate
  TGI: > 100 µM

## CCN1CCC(O)(/C=C/c2cccc(C)c2)C(C(=O)/C=C/c2cccc(C)c2)C1 (stereo not drawn)
HOP-92 NSCLC
  TGI: 7.56 µM
HCC-2998 colon
  TGI: 2.96 µM
NCI-H23 lung
  TGI: 4.95 µM
SNB-75 CNS
  TGI: 7.69 µM
LOX IMVI melanoma
  TGI: 5.02 µM
UACC-257 melanoma
  TGI: 7.31 µM
MDA-N
  TGI: 8.67 µM
OVCAR-4 ovarian
  TGI: 13.6 µM
SK-OV-3 ovarian
  TGI: 11.4 µM
SW-620 colon
  TGI: 7.38 µM
SK-MEL-28 melanoma
  TGI: 4.49 µM
MALME-3M melanoma
  TGI: 3.53 µM
DU-145 prostate
  TGI: 13.8 µM
NCI-H522 lung
  TGI: 4.65 µM
OVCAR-3 ovarian
  TGI: 12.4 µM

## ClCc1nnc2n1-c1ccc(Cl)cc1SC2
HOP-92 NSCLC
  TGI: 9.26 µM
HCC-2998 colon
  TGI: 11 µM
NCI-H23 lung
  TGI: 8.2 µM
SNB-75 CNS
  TGI: 10.3 µM
LOX IMVI melanoma
  TGI: 2.82 µM
UACC-257 melanoma
  TGI: 9.8 µM
OVCAR-4 ovarian
  TGI: 12.6 µM
SK-OV-3 ovarian
  TGI: 12.6 µM
SW-620 colon
  TGI: 24 µM
SK-MEL-28 melanoma
  TGI: 17.6 µM
MALME-3M melanoma
  TGI: 15.8 µM
NCI-H522 lung
  TGI: 3.21 µM
OVCAR-3 ovarian
  TGI: 8.09 µM

## O=C(NC/C=C/CO)c1ccccc1
HCC-2998 colon
  TGI: > 100 µM
NCI-H23 lung
  TGI: > 100 µM
SNB-75 CNS
  TGI: > 100 µM
LOX IMVI melanoma
  TGI: > 100 µM
UACC-257 melanoma
  TGI: > 100 µM
OVCAR-4 ovarian
  TGI: > 100 µM
SK-OV-3 ovarian
  TGI: > 100 µM
SW-620 colon
  TGI: > 100 µM
SK-MEL-28 melanoma
  TGI: > 100 µM
MALME-3M melanoma
  TGI: > 100 µM
NCI-H522 lung
  TGI: > 100 µM
OVCAR-3 ovarian
  TGI: > 100 µM

## CCCCCCCCOP(=O)(O)OP(=O)(O)OCC1OC(n2ccc(N)nc2=O)C(O)C1O (stereo not drawn)
HOP-92 NSCLC
  TGI: > 100 µM
HCC-2998 colon
  TGI: > 100 µM
NCI-H23 lung
  TGI: > 100 µM
SNB-75 CNS
  TGI: > 100 µM
LOX IMVI melanoma
  TGI: > 100 µM
UACC-257 melanoma
  TGI: > 100 µM
MDA-N
  TGI: > 100 µM
OVCAR-4 ovarian
  TGI: > 100 µM
BT-549 breast
  TGI: > 100 µM
SK-OV-3 ovarian
  TGI: > 100 µM
SW-620 colon
  TGI: > 100 µM
SK-MEL-28 melanoma
  TGI: > 100 µM
MALME-3M melanoma
  TGI: > 100 µM
OVCAR-3 ovarian
  TGI: > 100 µM

## O=C1CCN(CCC(F)(F)C(F)(F)C(F)(F)C(F)(F)F)C(=S)N1
NCI-H23 lung
  TGI: > 100 µM
SNB-75 CNS
  TGI: > 100 µM
LOX IMVI melanoma
  TGI: > 100 µM
OVCAR-4 ovarian
  TGI: > 100 µM
SW-620 colon
  TGI: > 100 µM
SK-MEL-28 melanoma
  TGI: > 100 µM
MALME-3M melanoma
  TGI: > 100 µM
NCI-H522 lung
  TGI: > 100 µM
OVCAR-3 ovarian
  TGI: > 100 µM

## CCOC(=O)c1sc2c(c1OC(=O)c1ccc(Cl)cc1Cl)c(=O)n(-c1ccccc1)c(=S)n2-c1ccccc1
HOP-92 NSCLC
  TGI: 26 µM
HCC-2998 colon
  TGI: > 74.6 µM
NCI-H23 lung
  TGI: > 82.6 µM
SNB-75 CNS
  TGI: > 100 µM
LOX IMVI melanoma
  TGI: > 81.1 µM
UACC-257 melanoma
  TGI: > 100 µM
MDA-N
  TGI: 68.7 µM
OVCAR-4 ovarian
  TGI: > 100 µM
SK-OV-3 ovarian
  TGI: > 81.2 µM
SW-620 colon
  TGI: > 100 µM
SK-MEL-28 melanoma
  TGI: > 100 µM
MALME-3M melanoma
  TGI: 66.3 µM
DU-145 prostate
  TGI: > 100 µM
NCI-H522 lung
  TGI: > 100 µM
OVCAR-3 ovarian
  TGI: > 100 µM
